Data from BindingDB's records for patent US20240307415 (Jiangsu Simcere Pharmaceutical, 2024).
pEC50: −log10 of the molar value.

Target: T1, Glucocorticoid receptor (Homo sapiens, UniProt P04150)
T1 sequence (P04150 whole entry): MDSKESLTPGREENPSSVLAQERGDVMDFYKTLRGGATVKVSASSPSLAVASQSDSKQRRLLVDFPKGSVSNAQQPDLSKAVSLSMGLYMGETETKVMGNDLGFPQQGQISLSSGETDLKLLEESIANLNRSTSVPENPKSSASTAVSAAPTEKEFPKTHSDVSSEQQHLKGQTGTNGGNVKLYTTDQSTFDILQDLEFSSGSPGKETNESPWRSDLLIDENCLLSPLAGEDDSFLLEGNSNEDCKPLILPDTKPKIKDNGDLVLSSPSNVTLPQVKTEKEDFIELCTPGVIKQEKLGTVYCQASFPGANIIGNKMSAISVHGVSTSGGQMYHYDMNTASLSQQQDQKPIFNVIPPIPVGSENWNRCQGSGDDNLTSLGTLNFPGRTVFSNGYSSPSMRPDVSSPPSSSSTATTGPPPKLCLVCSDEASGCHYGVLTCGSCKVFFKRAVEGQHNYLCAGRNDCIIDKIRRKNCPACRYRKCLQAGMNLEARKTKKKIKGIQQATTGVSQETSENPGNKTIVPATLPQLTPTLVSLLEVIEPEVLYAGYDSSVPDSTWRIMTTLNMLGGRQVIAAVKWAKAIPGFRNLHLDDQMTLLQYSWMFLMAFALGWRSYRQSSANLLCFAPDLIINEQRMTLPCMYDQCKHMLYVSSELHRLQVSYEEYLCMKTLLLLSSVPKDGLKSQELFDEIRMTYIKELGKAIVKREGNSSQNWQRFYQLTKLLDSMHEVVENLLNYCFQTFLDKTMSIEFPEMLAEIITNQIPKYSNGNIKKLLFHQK
Experiment: Binding Activity of Compound of the Present Invention to Glucocorticoid Receptor GR
Experimental: The binding activity of the compound to GR was determined using the Polarscreen Glucocorticoid Receptor Assay Kit, Red (brand: Thermo, Cat. No: A15898). […] The highest concentration was 100 μM, 8 concentrations in total.

C[C@]12C=CC(=O)C=C1CC[C@@H]1[C@@H]2[C@@H](O)C[C@@]2(C)[C@H]1C[C@H]1O[C@@H](c3ccc(Cc4ccc5cc[nH]c5c4)cc3)O[C@]12C(=O)CO [US20240307415, Compound 003]
pEC50: 6.92
